According to patent US9107946B2, “Drug combinations comprising a DGAT inhibitor and a PPAR-agonist” (Janssen Pharmaceutica NV, priority 2008, dated 2015):

Key:
human DGAT1 = target: T1, human DGAT1 (Homo sapiens, UniProt O75907); experiment: DGAT1 FlashPlate assay: inhibition of DGAT1 activity in membrane preparations; type: biochemical; conditions: human DGAT1 membranes from SF9 cells, [3H]-oleoylCoA, 120 min at 37° C.; for IC50: read-out: pIC50 (-logIC50, 50% inhibition of DGAT1 activity) (converted)
T1 construct: FLAG (N); made in house; host or cells: SF9 insect cells (pFastBac / baculovirus); total cell membranes
T1 sequence (O75907 1-488): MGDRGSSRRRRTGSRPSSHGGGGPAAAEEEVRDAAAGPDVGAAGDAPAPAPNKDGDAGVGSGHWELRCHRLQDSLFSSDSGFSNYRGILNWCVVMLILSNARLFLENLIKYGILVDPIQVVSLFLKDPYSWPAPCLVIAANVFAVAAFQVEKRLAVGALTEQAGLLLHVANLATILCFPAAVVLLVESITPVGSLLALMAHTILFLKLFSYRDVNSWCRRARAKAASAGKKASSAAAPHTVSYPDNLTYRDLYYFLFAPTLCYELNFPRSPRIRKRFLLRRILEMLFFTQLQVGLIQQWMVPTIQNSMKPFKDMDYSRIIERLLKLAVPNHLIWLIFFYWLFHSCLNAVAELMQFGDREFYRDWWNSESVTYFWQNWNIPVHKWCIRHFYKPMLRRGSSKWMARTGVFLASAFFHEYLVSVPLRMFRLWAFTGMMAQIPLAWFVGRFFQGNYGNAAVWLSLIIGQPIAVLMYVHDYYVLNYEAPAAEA
Excerpt: The inhibiting activity of compounds of Class A, Class B, Class C and Class D on DGAT1 activity was screened in a single well procedure assay using DGAT1 comprising membrane preparations and DGAT1 substrate comprising micelles and determining formed radio-active triacylglycerol coming in close proximity of a flashplate surface by radioluminescence.
Said assay is described in full detail in WO2006/067071, the content of which is incorporated herein by reference.
By DGAT1 activity is meant the transfer of coenzyme A activated fatty acids to the 3-position of 1,2-diacylglycerols, thus forming a triglyceride molecule, by enzyme DGAT1.
human DGAT1 (NM012079.2) was cloned into the pFastBac vector, containing translation start, a FLAG-tag at the N-terminus as described in literature and a viral Kozak sequence (AAX) preceding the ATG to improve expression in insect cells. Expression was done as described in literature (Cases, S., Smith, S. J., Zheng, Y., Myers H. M., Lear, S. R., Sande, E., Novak, S., Collins, C., Welch, C. B., Lusis, A. J., Erickson, S. K. and Farese, R. V. (1998) Proc. Natl. Acad. Sci. USA 95, 13018-13023.) using SF9 cells.
72h transfected SF9 cells were collected by centrifugation (13000 rpm-15 min-4° C.) and lysed in 2×500 ml lysisbuffer (0.1M Sucrose, 50 mM KCl, 40 mM KH2PO4, 30 mM EDTA pH 7.2. Cells were homogenized by cell disruptor. After centrifugation 1380 rpm-15 min-4° C. (SN discarded), pellet was resuspended in 500 ml lysisbuffer and total cell membranes collected by ultracentrifugation at 34000 rpm(100 000 g) for 60 min (4° C.). The collected membranes were resuspended in lysis buffer, divided in aliquots and stored with 10% glycerol at −80° C. until use.
• a) 1,2-dioleoyl-sn-glycerol, 10 mg/ml (1,2-diacylglycerol (DAG)) Dissolve in acetonitrile; evaporate the acetonitrile solution under nitrogen and reconstitute in chloroform at a final concentration of 10 mg/ml. • b) L-α-phosphatidylcholine, 1 mg/ml (phosphatidylcholine (PC)) • Dissolve in chloroform at a final concentration of 1 mg/ml and store at 4° C. • c) L-α-phosphatidyl-L-serine, 1 mg/ml (phophatidylserine (PS)) • Dissolve in chloroform at a final concentration of 1 mg/ml and store at 4° C. Method
Add 1 ml dioleoyl-sn-glycerol (10 mg/ml) to 10 ml of L-α-phosphatidylcholine (1 mg/ml) and 10 ml of L-α-phosphatidyl-L-serine (1 mg/ml) in a thick glass recipient. Evaporate under nitrogen and put on ice for 15 min Reconstitute in 10 ml Tris/HCl (10 mM, pH 7.4) by sonication on ice. The sonification process includes sonification cycles of 10 seconds in the sonification bath followed by 10 seconds cool down on ice and repeating this sonification cycle till a homogeneous solution is obtained (takes about 15 min). The thus obtained micelles are stored at −20° C. till later use and contain DAG at a final concentration of 1.61 mM.
• a) Assaybuffer • 50 mM Tris-HCl (pH 7.4), 150 mM MgCl2, 1 mM EDTA, 0.2% BSA. • b) N-ethylmaleimide, 5M • Dissolve 5 g into a final volume of 8 ml DMSO 100% and store at −20° C. in aliquots till later use. • c) Substrate mix (for 1 384 well plate=3840 μl) • 612 μl micelles stock (51 μM final) • 16.6 μl oleoylCoA 9.7 mM • 23 μl [^3H]-oleoylCoA (49 Ci/mmol, 500 μCi/ml) • 3188.4 μl Tris pH 7.4, 10 mM • d) Enzyme mix (for 1 384 well plate=3520 μl) (5 μg/ml) • Add 11.73 μl of DGAT membrane stock (1500 μg/ml stock) to 3508 μl assay buffer. • e) Stop mix (for 1 384 well plate=7.68 ml) (250 mM) • Add 384 μl of N-ethylmaleimide (5M) to 3.456 ml DMSO 100%, and further dilute 3.84 ml of said solution with 3.84 ml DMSO 10%. Method
DGAT activity in membrane preparations was assayed in 50 mM Tris-HCl (pH 7.4), 150 mM MgCl2, 1 mM EDTA and 0.2% BSA, containing 50 μM DAG, 32 μg/ml PC/PS and 8.4 μM [^3H]-oleoylCoA (at a specific activity of 30 nCi/well) in a final volume of 50 μl in 384-well format using the red shifted Basic Image FlashPlate™ (Perkin Elmer Cat.No. SMP400). […]

| IC50 (human DGAT1) | melting point | pIC50 (-logIC50, 50% inhibition of DGAT1 activity) (human DGAT1) | Compound |
| --- | --- | --- | --- |
| 38.9 nM | 262 to 263 °C |  | O=C(Nc1cccc(N2CCCC2)c1)c1ccc(N2CCN(C(=O)Cc3c(Cl)cc(CN4CCCC4)cc3Cl)CC2)cc1 [147-Class C, 4-[4-[[2,6-dichloro-4-(1-pyrrolidinylmethyl)phenyl]acetyl]-1-piperazinyl]-N-[3-(1-pyrrolidinyl)phenyl]-benzamide] |
| 9.12 nM | 180 to 182 °C |  | CCN1CCN(Cc2cc(Cl)c(CC(=O)N3CCN(c4ccc(C(=O)Nc5cccc(N6CCCC6)c5)cc4)CC3)c(Cl)c2)CC1 [148-Class C, 4-[4-[[2,6-dichloro-4-[(4-ethyl-1-piperazinyl)methyl]phenyl]acetyl]-1-piperazinyl]-N-[3-(1-pyrrolidinyl)phenyl]-benzamide] |
| 6.17 nM | 250 to 252 °C |  | CC(=O)N1CCN(Cc2cc(Cl)c(CC(=O)N3CCN(c4ccc(C(=O)Nc5cccc(N6CCCC6)c5)cc4)CC3)c(Cl)c2)CC1 [149-Class C, 4-[4-[[4-[(4-acetyl-1-piperazinyl)methyl]-2,6-dichlorophenyl]acetyl]-1-piperazinyl]-N-[3-(1-pyrrolidinyl)phenyl]-benzamide] |
| 6.03 nM | 240 to 242 °C |  | CS(=O)(=O)N1CCN(Cc2cc(Cl)c(CC(=O)N3CCN(c4ccc(C(=O)Nc5cccc(N6CCCC6)c5)cc4)CC3)c(Cl)c2)CC1 [150-Class C, 4-[4-[[2,6-dichloro-4-[[4-(methylsulfonyl)-1-piperazinyl]methyl]phenyl]acetyl]-1-piperazinyl]-N-[3-(1-pyrrolidinyl)phenyl]-benzamide] |
| 316 nM | 224.1 to 225.4 °C |  | O=C(Nc1cccc(N2CCCC2)c1)c1ccc(N2CCN(C(=O)Cc3ccc(CN4CCCC4)cc3Cl)CC2)cc1 [151-Class C, 4-[4-[[2-chloro-4-(1-pyrrolidinylmethyl)phenyl]acetyl]-1-piperazinyl]-N-[3-(1-pyrrolidinyl)phenyl]-benzamide] |
| 35.5 nM | 138.7 to 140.9 °C |  | O=C(Nc1cccc(N2CCCC2)c1)c1ccc(N2CCN(C(=O)C(O)c3ccc(CN4CCCC4)cc3Cl)CC2)cc1 (stereo not shown) [152-Class C, 4-[4-[[2-chloro-4-(1-pyrrolidinylmethyl)phenyl]hydroxyacetyl]-1-piperazinyl]-N-[3-(1-pyrrolidinyl)phenyl]-benzamide] |
|  |  | 6.97 | O=C(NCc1cccc(N2CCCC2)c1)c1ccc(N2CCN(C(=O)Cc3c(Cl)cc(CN4CCCC4)cc3Cl)CC2)cc1 [267-Class D, 4-[4-[[2,6-dichloro-4-(1-pyrrolidinylmethyl)phenyl]acetyl]-1-piperazinyl]-N-[[3-(1-pyrrolidinyl)phenyl]methyl]-benzamide] |
|  |  | 6.62 | COc1ccc(CC(=O)Nc2ccc(N3CCN(C(=O)Cc4c(Cl)cc(CN5CCCC5)cc4Cl)CC3)cc2)cc1 [351-Class D, N-[4-[4-[[2,6-dichloro-4-(1-pyrrolidinylmethyl)phenyl]acetyl]-1-piperazinyl]phenyl]-4-methoxy-benzeneacetamide] |
|  |  | 6.45 | COc1ccc(CC(=O)Nc2ccc(N3CCN(C(=O)C(O)c4ccc(CN5CCCC5)cc4Cl)CC3)cc2)cc1 (stereo not shown) [352-Class D, N-[4-[4-[[2-chloro-4-(1-pyrrolidinylmethyl)phenyl]hydroxyacetyl]-1-piperazinyl]phenyl]-4-methoxy-benzeneacetamide] |
| 257 nM | 126.6 to 128.1 °C |  | COc1cc(CNC(=O)c2ccc(N3CCN(C(=O)Cc4ccc(CN5CCCC5)cc4Cl)CC3)cc2)cc(OC)c1 [353-Class D, 4-[4-[[2-chloro-4-(1-pyrrolidinylmethyl)phenyl]acetyl]-1-piperazinyl]-N-[(3,5-dimethoxyphenyl)methyl]-benzamide] |
| 646 nM | 206.3 to 209.4 °C |  | O=C(NCc1cccc(N2CCCC2)c1)c1ccc(N2CCN(C(=O)Cc3ccc(CN4CCCC4)cc3Cl)CC2)cc1 [354-Class D, 4-[4-[[2-chloro-4-(1-pyrrolidinylmethyl)phenyl]acetyl]-1-piperazinyl]-N-[[3-(1-pyrrolidinyl)phenyl]methyl]-benzamide] |
| 912 nM | 153.3 to 155.2 °C |  | COc1ccc(CC(=O)Nc2ccc(N3CCN(C(=O)Cc4ccc(CN5CCCC5)cc4Cl)CC3)cc2)cc1 [355-Class D, N-[4-[4-[[2-chloro-4-(1-pyrrolidinylmethyl)phenyl]acetyl]-1-piperazinyl]phenyl]-4-methoxy-benzeneacetamide] |
| 74.1 nM | 134.4 to 137 °C |  | O=C(NCc1cccc(N2CCCC2)c1)c1ccc(N2CCN(C(=O)C(O)c3ccc(CN4CCCC4)cc3Cl)CC2)cc1 (stereo not shown) [356-Class D, 4-[4-[[2-chloro-4-(1-pyrrolidinylmethyl)phenyl]hydroxyacetyl]-1-piperazinyl]-N-[[3-(1-pyrrolidinyl)phenyl]methyl]-benzamide] |
| 55 nM |  |  | COc1cc(CNC(=O)c2ccc(N3CCN(C(=O)C(O)c4ccc(CN5CCCC5)cc4Cl)CC3)cc2)cc(OC)c1 (stereo not shown) [357-Class D, 4-[4-[[2-chloro-4-(1-pyrrolidinylmethyl)phenyl]hydroxyacetyl]-1-piperazinyl]-N-[(3,5-dimethoxyphenyl)methyl]-benzamide] |
| 28.2 nM | 240 to 241 °C |  | CCN1CCN(Cc2cc(Cl)c(CC(=O)N3CCN(c4ccc(C(=O)NCc5cccc(N6CCCC6)c5)cc4)CC3)c(Cl)c2)CC1 [359-Class D, 4-[4-[[2,6-dichloro-4-[(4-ethyl-1-piperazinyl)methyl]phenyl]acetyl]-1-piperazinyl]-N-[[3-(1-pyrrolidinyl)phenyl]methyl]-benzamide] |
| 7.59 nM | 159 to 160 °C |  | CCN1CCN(Cc2cc(Cl)c(CC(=O)N3CCN(c4ccc(C(=O)NCc5cc(OC)cc(OC)c5)cc4)CC3)c(Cl)c2)CC1 [360-Class D, 4-[4-[[2,6-dichloro-4-[(4-ethyl-1-piperazinyl)methyl]phenyl]acetyl]-1-piperazinyl]-N-[(3,5-dimethoxyphenyl)methyl]-benzamide] |
